For one experiment, the system named is THP-1 cells. Briefly: Inhibition of cell chemotaxis caused by MCP-1. The following applies: Homo sapiens, MCP-1 20 ng/mL, read-out: inhibition of cell migration IC50. The class given is cell-based. The protocol: Measurement of Inhibition of Cell Chemotaxis
In order to determine the inhibition of cell chemotaxis by the compounds of this invention, we measured cell chemotaxis caused by monocyte chemotactic factor MCP-1 using the human monocytic leukemia cell line THP-1 as the chemotactic cell according to the method of Fall et al. (J. Immunol. Methods, 190, 33,239-247). 2×10^6 cells/mL of THP-1 cells (suspended in RPMI-1640 (Flow Laboratories Co.)+10% FCS) was placed in the upper chamber (200 μL) of a 96 well micro-chemotaxis chamber (Neuroprobe; registered tradename), and human recombinant MCP-1 in a same solution (Peprotech Co.) at a final concentration of 20 ng/mL was placed in the lower chamber, with a polycarbonate filter (PVP-free, Neuroprobe; registered tradename) placed between the two chambers. These were incubated at 37° C. for 2 hr in 5% CO2.
The filter was removed, and the cells which had migrated to the underside of the filter was fixed, stained using Diff Quick (Kokusai Shiyaku Co.) and then quantitated using a plate reader (Molecular Device Co.) at a wavelength of 550 nm to determine the index of cell migration as a mean of 3 wells. In addition, test compounds were placed in the upper and lower chambers along with THP-1 and MCP-1, respectively, and the inhibition of cell migration (inhibition IC50 (μM)) was determined.

Experiment [1] addresses T1, binding of human MCP-1 to THP-1 cells (Homo sapiens, UniProt P41597).
T1 construct: endogenous in cells; host or cells: THP-1 (human monocytic leukemia cell line), whole cells
T1 sequence (P41597 1-360 isoform P41597-2): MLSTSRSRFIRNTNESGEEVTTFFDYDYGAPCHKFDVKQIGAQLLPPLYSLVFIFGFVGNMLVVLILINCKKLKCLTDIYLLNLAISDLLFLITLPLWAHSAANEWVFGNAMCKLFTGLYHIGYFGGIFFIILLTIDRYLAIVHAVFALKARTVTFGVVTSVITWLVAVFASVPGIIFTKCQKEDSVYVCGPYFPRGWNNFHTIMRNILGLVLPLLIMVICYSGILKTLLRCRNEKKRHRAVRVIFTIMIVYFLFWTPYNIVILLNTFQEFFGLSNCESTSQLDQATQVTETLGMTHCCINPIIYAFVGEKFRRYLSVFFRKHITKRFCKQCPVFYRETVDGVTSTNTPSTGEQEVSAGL
Briefly: Inhibition of binding of [125I]-labeled baculovirus expressed human MCP-1 to THP-1 cells (Method 2). The following applies: Method 2, at 1 μM. An excerpt:
1. Construction of recombinant baculovirus carrying the human MCP-1 gene
Based on the previously published human MCP-1 gene sequence (for example T. Yoshirnura et al., FEBS Lett., 1989, 244, 487-493), two synthetic DNA primers (5′-[…]-3′ and 5′-[…]-3′) flanked by restriction enzyme sites were used to amplify a DNA fragment from cDNA derived from human endothelial cells (purchased from Kurabow Co.); the amplified fragment was cut with the restriction enzymes (PstI and XbaI), ligated into a transfer vector pVL1393 (Invitrogen Co.), and the resulting vector was co-transfected along with infectious baculovirus into Sf-9 insect cells and the supernatant was plaque assayed to yield human MCP-1 gene baculovirus recombinant.
2. Synthesis of [^125I]-labeled human MCP-1 expressed in baculovirus
Using the method of K. Ishii et al. (Biochem Biophys Research Communications, 1995, 206, 955-961), 5×10^6 Sf-6 insect cells was infected with 5×10^7 PFU (plaque forming units) of the above human MCP-1 recombinant baculovirus and cultured for 7 days in Ex-Cell 401 medium. The culture supernatant was affinity purified using a heparin Sepharose column (Pharmacia Co.) and then further purified using reverse phase HPLC (Vydac C18 column) to prepare purified human MCP-1. The purified human MCP-1 was protein labeled by Amersham Co. using the Bolton Hunter method to yield [^125I]-labeled baculovirus expressed human MCP-1 (specific activity 2000 Ci/mmol).
3-2. Measurement of inhibition of binding of [^125I]-labeled baculovirus expressed human MCP-1 to THP-1 cells (Method 2)
Human monocytic leukemia cell line THP-1 was suspended in assay buffer (50 mM HEPES, pH 7.4, 1.0 mM CaCl2, 5.0% mM MgCl2, 0.5% BSA) to give a cell suspension of a concentration of 1×10^7 cells/mL. The test compound was diluted in the assay buffer and used as the test compound solution. [^125I]-labeled human MCP-1 described above was diluted in assay buffer to 1 mCi/mL and used as the labeled ligand solution. In a 96 well filter plate (Millipore Co.), 25 μL of test compound solution, 25 μL of labeled ligand solution and 50 μL of cell suspension were aliquoted into each well in this order, stirred (total reaction volume 100 μL), and incubated for one hour at 18° C.
After the reaction, the reaction solution was filtered, and the filter was washed twice with 200 μL of cold PBS (200 μL of cold PBS was added and then filtered). The filter was air-dried and 25 μL of liquid scintillator was added into each well. The radioactivity retained by the cells on the filter were measured using TopCount (Packard Instrument Co.).
To calculate the ability of test compound to inhibit binding of human MCP-1 to THP-1 cells, non-specific binding determined by adding 100 ng of unlabeled human MCP-1 in place of the test compound was subtracted, while the counts with no test compound added was taken as 100%.
Inhibition (%)={1−(A−B)/(C−B)}×100
(A, counts with test compound added; B, counts with 100 ng of unlabeled human MCP-1 added; C, counts with [^125I]-labeled human MCP-1 added).

Experiment [2] addresses T1, binding of human MCP-1 to THP-1 cells. Put plainly: Inhibition of binding of [125I]-labeled baculovirus expressed human MCP-1 to THP-1 cells (Method 1). Particulars: for inhibition at 10 µM: Method 1, at 10 μM. An excerpt: Measurement of Inhibition of MCP-1 Binding to THP-1 Cells 1. Construction of recombinant baculovirus carrying the human MCP-1 gene Based on the previously published human MCP-1 gene sequence (for example T. Yoshirnura et al., FEBS Lett., 1989, 244, 487-493), two synthetic DNA primers ([NT] and [NT]) flanked by restriction enzyme sites were used to amplify a DNA fragment from cDNA derived from human endothelial cells (purchased from Kurabow Co.); the amplified fragment was cut with the restriction enzymes (PstI and XbaI), ligated into a transfer vector pVL1393 (Invitrogen Co.), and the resulting vector was co-transfected along with infectious baculovirus into Sf-9 insect cells and the supernatant was plaque assayed to yield human MCP-1 gene baculovirus recombinant. […] Using the method of K. Ishii et al. […] The culture supernatant was affinity purified using a heparin Sepharose column (Pharmacia Co.) and then further purified using reverse phase HPLC (Vydac C18 column) to prepare purified human MCP-1. […] 3-1. […] The test. compound was diluted in the assay buffer and used as the test compound solution. [^125I]-labeled human MCP-1 described above was diluted in assay buffer to 1 mCi/mL and used as the labeled ligand solution. In a 96 well filter plate (Millipore Co.), 25 μL of test compound solution, 25 μL of labeled ligand solution and 50 μL of cell suspension were aliquoted into each well in this order, stirred (total reaction volume 100 μL), and incubated for one hour at 18° C. After the reaction, the reaction solution was filtered, and the filter was washed twice with 200 μL of cold PBS (200 μL of cold PBS was added and then filtered). The filter was air-dried and 25 μL of liquid sciatillator was added into each well. The radioactivity retained by the cells on the filter were measured using TopCount (Packard Instrument Co.). To calculate the ability of test compound to inhibit binding of human MCP-1 to THP-1 cells, non-specific binding determined by adding 100 ng of unlabeled human MCP-1 in place of the test compound was subtracted, while the counts with no test compound added was taken as 100%. Inhibition (%)=(1-(A-B)/(C-B))×100 (A, counts with test compound added; B, counts with 100 ng of unlabeled human MCP-1 added; C, counts with [^125I]-labeled human MCP-1 added).

The term inhibition denotes the change of the read-out against control, counted positive when it falls. Read a low inhibition as a weak effect. As to `C=Cc1ccc(CN2CC[C@@H](NC(=O)CNC(=O)c3cc(C(F)(F)F)ccc3N)C2)cc1` [Compound No. 1701, (R)-3-[{N-(2-Amino-5-(trifluoromethyl)benzoyl)glycyl}amino]-1-(4-vinylbenzyl)pyrrolidine], the IC50 in the experiment with THP-1 cells is under 100 nM. For the same compound, the inhibition at 1 µM in experiment [1] is over 80%.
On to `COc1ccc(CN2CC[C@@H](NC(=O)CNC(=O)c3cc(OC(F)(F)F)ccc3N)C2)cc1O` [Compound No. 1896, (R)-3-[{N-(2-Amino-5-trifluoromethoxybenzoyl)glycyl}amino]-1-(3-hydroxy-4-methoxybenzyl)pyrrolidine], for which the IC50 in the experiment on THP-1 cells is under 100 nM. Besides, the inhibition at 1 µM in experiment [1] is over 80%.
As to `Nc1cc(CN2CCC(CNC(=O)CNC(=O)c3cc(F)c(F)cc3N)CC2)ccc1O` [Compound No. 2141, 4-[{N-(2-amino-4,5-difluorobenzoyl)glycyl}aminomethyl]-1-(3-amino-4-hydroxybenzyl)piperidine], the IC50 in the experiment on THP-1 cells is under 100 nM.
Regarding `O=C(CNC(=O)c1cccc(C(F)(F)F)c1)NCC1CCN(Cc2ccc(NC(=O)c3ccccc3)cc2)CC1` [Compound No. 519, 1-{4-(Benzoylamino)benzyl}-4-[{N-(3-(trifluoromethyl)benzoyl)glycyl}aminomethyl]piperidine], the inhibition at 10 µM in experiment [2] lay in the range of 20 to 50%.
Take `Cc1ccc(CN2CCC(CNC(=O)CNC(=O)c3cc(F)c(F)cc3N)CC2)cc1N` [Compound No. 2114, 4-[{N-(2-Amino-4,5-difluorobenzoyl)glycyl}aminomethyl]-1-(3-amino-4-methylbenzyl)piperidine]: in the experiment on THP-1 cells, the IC50 is under 100 nM. Besides, the inhibition at 1 µM in experiment [1] was over 80%.
`O=C(CNC(=O)c1cccc(C(F)(F)F)c1)N[C@H]1CCN(Cc2ccccc2)C1` [Compound No. 239, (S)-1-Benzyl-3-[N-{3-(trifluoromethyl)benzoyl}glycyl]aminopyrrolidine] came in with an inhibition at 10 µM in experiment [2] of 20 to 50%.
The same measure, in the same setting: under `Nc1ccc(CN2CCC(CNC(=O)CNC(=O)c3cccc(C(F)(F)F)c3)CC2)cc1` [Compound No. 516, 1-(4-Aminobenzyl)-4-[{N-(3-(trifluoromethyl)benzoyl)glycyl}aminomethyl]piperidine] stands 20 to 50%.
Turning to `Cc1noc(C)c1CN1CC[C@@H](NC(=O)CNC(=O)c2cc(F)cc(C(F)(F)F)c2)C1` [compound 1191, (R)-3-[N-(3-Fluoro-5(trifluoromethyl)benzoyl)glycyl]amino-1-(3,5-dimethylisoxazol-4-ylmethyl)pyrrolidine], the IC50 in the experiment on THP-1 cells was under 100 nM. In experiment [1], the inhibition at 1 µM was over 80%.
`O=C(CNC(=O)Nc1ccc(C(F)(F)F)cc1)NCC1CCN(Cc2ccc(Cl)cc2)CC1` [Compound No. 852, 1-(4-Chlorobenzyl)-4-[{2-(3-(4-trifluoromethylphenyl)ureido)acetylamino}methyl]piperidine] displayed an inhibition at 100 µM in experiment [2] (Method 1, at 100 μM) of over 80%.
`NC(=O)c1ccc(CN2CCC(CNC(=O)CNC(=O)c3cccc(C(F)(F)F)c3)CC2)cc1` [Compound No. 925, 1-(4-Carbamoylbenzyl)-4-[{N-(3-(trifluoromethyl)benzoyl)glycyl}aminomethyl]piperidine] came in with an inhibition at 10 µM in experiment [2] of 20 to 50%.
On to `Nc1cc(Cl)ccc1CN1CC[C@@H](NC(=O)CNC(=O)c2cc(OC(F)(F)F)ccc2N)C1` [Compound No. 1921, (R)-3-[{N-(2-Amino-5-trifluoromethoxybenzoyl)glycyl}amino]-1-(2-amino-4-chlorobenzyl)pyrrolidine], for which the IC50 with THP-1 cells is under 100 nM. The inhibition at 1 µM in experiment [1] is over 80%.
Turning to `CNc1cc(CN2CC[C@@H](NC(=O)CNC(=O)c3cc(C(F)(F)F)ccc3N)C2)ccc1O` [Compound No. 2158, (R)-3-[{N-(2-Amino-5-trifluoromethylbenzoyl)glycyl}amino]-1-(3-methylamino-4-hydroxybenzyl)pyrrolidine], in the experiment on THP-1 cells, the IC50 was under 100 nM.
`Nc1cc(CN2CC[C@@H](NC(=O)CNC(=O)c3cc(C(F)(F)F)ccc3N)C2)ccc1Cl` [Compound No. 2132, (R)-1-(3-Amino-4-chlorobenzyl)-3-[{N-(2-amino-5-trifluoromethylbenzoyl)glycyl}amino]pyrrolidine]: the IC50 with THP-1 cells is under 100 nM. Moreover, in experiment [1], the inhibition at 1 µM is over 80%.

The values are drawn from patent US6410566B1, “Cyclic amine derivatives and their use as drugs” (Teijin Limited, priority 2000, dated 2002).
